Experimental data published in patent publication US10765114B2, “4-amino-6-(pyridyl and 2-substitutedphenyl)-picolinates and 6-amino-2-(pyridyl and 2-substitutedphenyl)-pyrimidine-4-carboxylates and their use as herbicides” (Dow AgroSciences LLC, priority 2013, dated 2020).

These compounds were tested on ALOMY (blackgrass) (assay: Post-Emergent Test III (Wheat and Barley)). Conditions: Alopecurus myosuroides, post-emergence, 504 h; 35 g ai/ha, postemergence; read-out: Visual Growth Reduction (%) 21 Days After Application, ALOMY.
Type: in vivo, Alopecurus myosuroides
Protocol: (§1) Seeds of the desired test plant species were planted in Sun Gro MetroMix® 306 planting mixture, which typically has a pH of 6.0 to 6.8 and an organic matter content of about 30 percent, in plastic pots with a surface area of 103.2 square centimeters (cm^2). When required to ensure good germination and healthy plants, a fungicide treatment and/or other chemical or physical treatment was applied. The plants were grown for 7-36 days in a greenhouse with an approximate 14 h photoperiod which was maintained at about 18° C. during the day and 17° C. during the night. Nutrients and water were added on a regular basis and supplemental lighting was provided with overhead metal halide 1000-Watt lamps as necessary. The plants were employed for testing when they reached the second or third true leaf stage.
(§2) A weighed amount, determined by the highest rate to be tested, of each test compound was placed in a 25 mL glass vial and was dissolved in 4 mL of a 97:3 v/v mixture of acetone and DMSO to obtain concentrated stock solutions. […] The concentrated stock solutions obtained were diluted with 20 mL of an aqueous mixture containing acetone, water, isopropyl alcohol, DMSO, Agri-Dex crop oil concentrate, and X-77 surfactant in a 48:39:10:1.5:1.5:0.02 v/v ratio to obtain spray solutions containing the highest application rates. Additional application rates were obtained by serial dilution of 12 mL of the high rate solution into a solution containing 2 mL of 97:3 v/v mixture of acetone and DMSO and 10 mL of an aqueous mixture containing acetone, water, isopropyl alcohol, DMSO, Agri-Dex crop oil concentrate, and X-77 surfactant in a 48:39:10:1.5:1.5:0.02 v/v ratio to obtain ½×, ¼×, ⅛× and 1/16× rates of the high rate. Compound requirements are based upon a 12 mL application volume at a rate of 187 liters per hectare (L/ha). Formulated compounds were applied to the plant material with an overhead Mandel track sprayer equipped with 8002E nozzles calibrated to deliver 187 L/ha over an application area of 0.503 square meters at a spray height of 18 inches (43 cm) above the average plant canopy height. Control plants were sprayed in the same manner with the solvent blank.
(§3) The treated plants and control plants were placed in a greenhouse as described above and watered by subirrigation to prevent wash-off of the test compounds. After 21 dAYS, the condition of the test plants as compared with that of the untreated plants was determined visually and scored on a scale of 0 to 100 percent where 0 corresponds to no injury and 100 corresponds to complete kill and presented as indicated in Table A.
(§4) By applying the well-accepted probit analysis as described by J. Berkson in Journal of the American Statistical Society, 48, 565 (1953) and by D. Finney in “Probit Analysis” Cambridge University Press (1952), herbicidal injury of a specific compound at various rates can be used to calculate GR10, GR20, GR50, GR80 and GR90 values, which are defined as growth reduction factors that correspond to the effective dose of herbicide required to provide plant growth reduction (GR) of 10 percent, 20 percent, 50 percent, 80 percent and 90 percent, respectively. Probit analysis was applied to data collected from multiple dose rates of individual compounds utilizing the procedures explained in the following examples. The analysis of those dose rates is captured in the following tables.

**Q.** Which pest or weed control at 35 g/ha does the source give for `COC(=O)c1nc(-c2ccc(C(F)(F)F)nc2)c(F)c(N)c1Cl` [Compound 59, methyl 4-amino-5-chloro-3-fluoro-6′-(trifluoromethyl)-[2,3′-bipyridine]-6-carboxylate] here?
**A.** The pest or weed control at 35 g/ha was 30 to 44%.

Same assay, conditions: Alopecurus myosuroides, post-emergence, 504 h; 70 g ai/ha, postemergence; read-out: Visual Growth Reduction (%) 21 Days After Application, ALOMY

**Q.** Which pest or weed control at 70 g/ha does the source give for `COC(=O)c1nc(-c2ccc(C(F)(F)F)nc2)c(F)c(N)c1Cl` [Compound 59, methyl 4-amino-5-chloro-3-fluoro-6′-(trifluoromethyl)-[2,3′-bipyridine]-6-carboxylate] here?
**A.** Its pest or weed control at 70 g/ha is 60 to 74%.

Same assay, conditions: effective dose for growth reduction of 50 percent, probit analysis

**Q.** Which “GR50, ALOMY” value does the source give for `COC(=O)c1nc(-c2ccc(C(F)(F)F)nc2)c(F)c(N)c1Cl` [Compound 59, methyl 4-amino-5-chloro-3-fluoro-6′-(trifluoromethyl)-[2,3′-bipyridine]-6-carboxylate] here?
**A.** Its value is 48 g ai/ha.

Same assay, conditions: effective dose for growth reduction of 80 percent, probit analysis

**Q.** `COC(=O)c1nc(-c2ccc(C(F)(F)F)nc2)c(F)c(N)c1Cl` [Compound 59, methyl 4-amino-5-chloro-3-fluoro-6′-(trifluoromethyl)-[2,3′-bipyridine]-6-carboxylate] was tested. Which “GR80, ALOMY” value did it give?
**A.** Its value is 80 g ai/ha.

These compounds were tested on APESV (windgrass) (assay: Post-Emergent Test III (Wheat and Barley)). Conditions: Apera spica-venti, post-emergence, 504 h; 35 g ai/ha, postemergence; read-out: Visual Growth Reduction (%) 21 Days After Application, APESV.
Type: in vivo, Apera spica-venti
Protocol: as §1, §2, §3, §4

**Q.** Which pest or weed control at 35 g/ha does the source give for `COC(=O)c1nc(-c2ccc(C(F)(F)F)nc2)c(F)c(N)c1Cl` [Compound 59, methyl 4-amino-5-chloro-3-fluoro-6′-(trifluoromethyl)-[2,3′-bipyridine]-6-carboxylate] here?
**A.** The pest or weed control at 35 g/ha was 30 to 44%.

Same assay, conditions: Apera spica-venti, post-emergence, 504 h; 70 g ai/ha, postemergence; read-out: Visual Growth Reduction (%) 21 Days After Application, APESV

**Q.** With `COC(=O)c1nc(-c2ccc(C(F)(F)F)nc2)c(F)c(N)c1Cl` [Compound 59, methyl 4-amino-5-chloro-3-fluoro-6′-(trifluoromethyl)-[2,3′-bipyridine]-6-carboxylate] as the compound, how does the pest or weed control at 70 g/ha read?
**A.** The pest or weed control at 70 g/ha was 75 to 84%.

Same assay, conditions: effective dose for growth reduction of 50 percent, probit analysis

**Q.** How did the “GR50, APESV” value turn out when `COC(=O)c1nc(-c2ccc(C(F)(F)F)nc2)c(F)c(N)c1Cl` [Compound 59, methyl 4-amino-5-chloro-3-fluoro-6′-(trifluoromethyl)-[2,3′-bipyridine]-6-carboxylate] was run?
**A.** Its value is 42 g ai/ha.

Same assay, conditions: effective dose for growth reduction of 80 percent, probit analysis

**Q.** How did the “GR80, APESV” value turn out when `COC(=O)c1nc(-c2ccc(C(F)(F)F)nc2)c(F)c(N)c1Cl` [Compound 59, methyl 4-amino-5-chloro-3-fluoro-6′-(trifluoromethyl)-[2,3′-bipyridine]-6-carboxylate] was run?
**A.** Its value is 72 g ai/ha.

The compounds below were run on TRZSS (assay: Post-Emergent Test III (Wheat and Barley)). Conditions: Triticum aestivum, post-emergence, 504 h; 35 g ai/ha, postemergence; read-out: Visual Growth Reduction (%) 21 Days After Application, TRZSS.
Type: in vivo
Protocol: as §1, §2, §3, §4

**Q.** `COC(=O)c1nc(-c2ccc(C(F)(F)F)nc2)c(F)c(N)c1Cl` [Compound 59, methyl 4-amino-5-chloro-3-fluoro-6′-(trifluoromethyl)-[2,3′-bipyridine]-6-carboxylate] was tested. Which pest or weed control at 35 g/ha did it give?
**A.** Its pest or weed control at 35 g/ha is 60 to 74%.

Same assay, conditions: Triticum aestivum, post-emergence, 504 h; 70 g ai/ha, postemergence; read-out: Visual Growth Reduction (%) 21 Days After Application, TRZSS

**Q.** For `COC(=O)c1nc(-c2ccc(C(F)(F)F)nc2)c(F)c(N)c1Cl` [Compound 59, methyl 4-amino-5-chloro-3-fluoro-6′-(trifluoromethyl)-[2,3′-bipyridine]-6-carboxylate], which pest or weed control at 70 g/ha is on record?
**A.** The pest or weed control at 70 g/ha was 75 to 84%.

Same assay, conditions: effective dose for growth reduction of 20 percent, probit analysis

**Q.** Which “GR20, TRZSS” value does the source give for `COC(=O)c1nc(-c2ccc(C(F)(F)F)nc2)c(F)c(N)c1Cl` [Compound 59, methyl 4-amino-5-chloro-3-fluoro-6′-(trifluoromethyl)-[2,3′-bipyridine]-6-carboxylate] here?
**A.** The value was 4 g ai/ha.

The compounds below were run on LOLSS (assay: Post-Emergent Test III (Wheat and Barley)). Conditions: effective dose for growth reduction of 50 percent, probit analysis.
Type: in vivo
Protocol: as §1, §2, §3, §4

**Q.** How did the “GR50, LOLSS” value turn out when `COC(=O)c1nc(-c2ccc(C(F)(F)F)nc2)c(F)c(N)c1Cl` [Compound 59, methyl 4-amino-5-chloro-3-fluoro-6′-(trifluoromethyl)-[2,3′-bipyridine]-6-carboxylate] was run?
**A.** Its value is over 140 g ai/ha.

Same assay, conditions: effective dose for growth reduction of 80 percent, probit analysis

**Q.** For `COC(=O)c1nc(-c2ccc(C(F)(F)F)nc2)c(F)c(N)c1Cl` [Compound 59, methyl 4-amino-5-chloro-3-fluoro-6′-(trifluoromethyl)-[2,3′-bipyridine]-6-carboxylate], which “GR80, LOLSS” value is on record?
**A.** The value was over 140 g ai/ha.

Same assay, conditions: post-emergence, 504 h; 35 g ai/ha, postemergence; read-out: Visual Growth Reduction (%) 21 Days After Application, LOLSS

**Q.** `COC(=O)c1nc(-c2ccc(C(F)(F)F)nc2)c(F)c(N)c1Cl` [Compound 59, methyl 4-amino-5-chloro-3-fluoro-6′-(trifluoromethyl)-[2,3′-bipyridine]-6-carboxylate] was tested. Which pest or weed control at 35 g/ha did it give?
**A.** Its pest or weed control at 35 g/ha is 0 to 29%.

Same assay, conditions: post-emergence, 504 h; 70 g ai/ha, postemergence; read-out: Visual Growth Reduction (%) 21 Days After Application, LOLSS

**Q.** `COC(=O)c1nc(-c2ccc(C(F)(F)F)nc2)c(F)c(N)c1Cl` [Compound 59, methyl 4-amino-5-chloro-3-fluoro-6′-(trifluoromethyl)-[2,3′-bipyridine]-6-carboxylate] was tested. Which pest or weed control at 70 g/ha did it give?
**A.** Its pest or weed control at 70 g/ha is 30 to 44%.

Each compound was assayed on HORSS (assay: Post-Emergent Test III (Wheat and Barley)). Conditions: Hordeum vulgare, post-emergence, 504 h; 35 g ai/ha, postemergence; read-out: Visual Growth Reduction (%) 21 Days After Application, HORSS.
Type: in vivo
Protocol: as §1, §2, §3, §4

**Q.** Which pest or weed control at 35 g/ha does the source give for `COC(=O)c1nc(-c2ccc(C(F)(F)F)nc2)c(F)c(N)c1Cl` [Compound 59, methyl 4-amino-5-chloro-3-fluoro-6′-(trifluoromethyl)-[2,3′-bipyridine]-6-carboxylate] here?
**A.** The pest or weed control at 35 g/ha was 75 to 84%.

Same assay, conditions: Hordeum vulgare, post-emergence, 504 h; 70 g ai/ha, postemergence; read-out: Visual Growth Reduction (%) 21 Days After Application, HORSS

**Q.** With `COC(=O)c1nc(-c2ccc(C(F)(F)F)nc2)c(F)c(N)c1Cl` [Compound 59, methyl 4-amino-5-chloro-3-fluoro-6′-(trifluoromethyl)-[2,3′-bipyridine]-6-carboxylate] as the compound, how does the pest or weed control at 70 g/ha read?
**A.** The pest or weed control at 70 g/ha was 75 to 84%.

Same assay, conditions: effective dose for growth reduction of 20 percent, probit analysis

**Q.** How did the “GR20, HORSS” value turn out when `COC(=O)c1nc(-c2ccc(C(F)(F)F)nc2)c(F)c(N)c1Cl` [Compound 59, methyl 4-amino-5-chloro-3-fluoro-6′-(trifluoromethyl)-[2,3′-bipyridine]-6-carboxylate] was run?
**A.** Its value is 4 g ai/ha.

What follows are compounds tested on KCHSC (kochia) (assay: Post-Emergent Test III (Wheat and Barley)). Conditions: Bassia scoparia, post-emergence, 504 h; 35 g ai/ha, postemergence; read-out: Visual Growth Reduction (%) 21 Days After Application, KCHSC.
Type: in vivo, Kochia scoparia
Protocol: as §1, §2, §3, §4

**Q.** Which pest or weed control at 35 g/ha does the source give for `COC(=O)c1nc(-c2ccc(C(F)(F)F)nc2)c(F)c(N)c1Cl` [Compound 59, methyl 4-amino-5-chloro-3-fluoro-6′-(trifluoromethyl)-[2,3′-bipyridine]-6-carboxylate] here?
**A.** Its pest or weed control at 35 g/ha is 60 to 74%.

Same assay, conditions: Bassia scoparia, post-emergence, 504 h; 70 g ai/ha, postemergence; read-out: Visual Growth Reduction (%) 21 Days After Application, KCHSC

**Q.** Which pest or weed control at 70 g/ha does the source give for `COC(=O)c1nc(-c2ccc(C(F)(F)F)nc2)c(F)c(N)c1Cl` [Compound 59, methyl 4-amino-5-chloro-3-fluoro-6′-(trifluoromethyl)-[2,3′-bipyridine]-6-carboxylate] here?
**A.** Its pest or weed control at 70 g/ha is 75 to 84%.

Same assay, conditions: effective dose for growth reduction of 50 percent, probit analysis

**Q.** With `COC(=O)c1nc(-c2ccc(C(F)(F)F)nc2)c(F)c(N)c1Cl` [Compound 59, methyl 4-amino-5-chloro-3-fluoro-6′-(trifluoromethyl)-[2,3′-bipyridine]-6-carboxylate] as the compound, how does the “GR50, KCHSC” value read?
**A.** The value was 27 g ai/ha.

Same assay, conditions: effective dose for growth reduction of 80 percent, probit analysis

**Q.** Which “GR80, KCHSC” value does the source give for `COC(=O)c1nc(-c2ccc(C(F)(F)F)nc2)c(F)c(N)c1Cl` [Compound 59, methyl 4-amino-5-chloro-3-fluoro-6′-(trifluoromethyl)-[2,3′-bipyridine]-6-carboxylate] here?
**A.** Its value is 57 g ai/ha.
